This note sets out measurements from patent US9624235B2, “Compounds and methods for inhibition of AP endonuclease-1/redox factor-1 (HAPE1) activity” (University of Pittsburgh—Of the Commonwealth System of …, priority 2012, dated 2017).

Like-named read-outs stand apart in the source and are kept apart here.

The target of experiment [1] is T1, APE-1 (Homo sapiens (Human), UniProt P27695). The experiment is described as follows: Molecular beacon assay for APE-1 endonuclease inhibition. In kind it is biochemical. An excerpt: Screening Assays for APE1 Inhibition—The initial screen was designed to look at the effect of potential inhibitors on APE1 repair kinetics. The approach can be used as a high throughput screen by choosing a specific timepoint to monitor. The screen utilizes a molecular beacon with a tetrahydrofuran (THF) abasic site within the stem region of a DNA hairpin that has a fluorophore on the 5′-terminus and a quencher on the 3′-terminus (FIG. 2a). […] An example of the molecular beacon screen and the excision assay are shown in FIGS. 2b,c and 2d, respectively.
T1 sequence (P27695 whole entry): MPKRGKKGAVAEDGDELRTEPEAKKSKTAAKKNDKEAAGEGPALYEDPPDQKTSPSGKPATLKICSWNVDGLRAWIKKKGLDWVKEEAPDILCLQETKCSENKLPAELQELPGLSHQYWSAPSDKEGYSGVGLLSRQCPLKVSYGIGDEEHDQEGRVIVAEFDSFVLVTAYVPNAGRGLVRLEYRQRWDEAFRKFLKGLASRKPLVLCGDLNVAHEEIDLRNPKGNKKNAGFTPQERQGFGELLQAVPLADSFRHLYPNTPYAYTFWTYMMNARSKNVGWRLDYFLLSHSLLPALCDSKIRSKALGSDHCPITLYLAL
Molecular Beacon Assay for Screening of APE-1 Inhibitors. A fluorescence-based molecular beacon assay to measure APE-1 protein activity and inhibition was performed as described previously with some modifications. Tang et al. Neuro Oncol. 13, 471-486 (2011) APE-1 (2 nM) in 10 mM HEPES (pH 7.8) 0.5 mM MgCl, 100 mM NaCl, 100 mM KCl, 0.0005% (w/v) BSA, was incubated with 20 nM 5′-(F)-CGACTXTTGAATTGACACGCCATGTCGATCAATTCAATAGTCG-(D)-3′ [X=tetrahydrofuran (THF) abasic site modification; F, 6-carboxyfluorescein (6-FAM); and D, DABCYL] that forms a hairpin with a 15 base pair stem and a 13 base loop. The THF modification is a known substrate for APE-1 excision. APE-1 mediated cleavage of the phosphodiester backbone at the THF-abasic site led to release of the 5′ 6-FAM (fluorophore) containing pentanucleotide, disrupting the Förster Resonance Energy Transfer (FRET) mediated quenching of the 6-FAM by DABCYL in the native hairpin oligomer. Since the signal was generated by continuous liberation of the fluorophore-labeled excision fragment, progress of this reaction could be monitored in real-time using a Cary Eclipse fluorescence spectrometer (Varian, Palo Alto, Calif.) or a Synergy H1 multi-well plate reader (BioTek, Winooski, Vt.). Reactions were optimized to yield ˜90% substrate turnover in 10 min, and fluorescence intensities measured every 12 s at 495 nm excitation and 520 nm emission. Data from the first 1-3 min of the assays (linear phase) were used to determine rate of substrate turnover (V0). The Michaelis constant (KM) was deduced experimentally, by incubating 2 nM APE-1 protein with 2-500 nM hairpin DNA substrate and measuring V0 —the experimentally observed V0 were analyzed as a function of substrate concentration [S] via non-linear regression using Prism (v.4; GraphPad Software, Inc., La Jolla, Calif.) and the KM was calculated as per the algorithm in the software package. To assay inhibition, 2 nM APE-1 protein was pre-incubated with 0.05-10.00 μM of the candidate inhibitors at 25° C. for 60 min, before initiating the excision assay by addition of hairpin DNA substrate. V0 was calculated at various concentrations of inhibitors and represented as inverse function of increasing inhibitor concentration [I]. […] All assays were carried out in three independent sets to obtain mean data and standard error of mean.
(§1) Screening for APE-1 Inhibitors. […] In this assay, the DNA hairpin substrate has a 6-FAM fluorophore on the 5′-terminus, a DABACYL fluorescence quencher on the 3′-terminus and a THF abasic site located 6 base pairs from the 5′-terminus in the stem region (FIG. 6). APE-1 activity is monitored as an increase in fluorescence due to the release of the 5′-(6-FAM)-GCACT fragment as a function of time. […] In this assay, substrate turnover was calculated from relative intensities of cleaved vs. intact oligomers and correlated with inhibitor concentration.

Experiment [2] deals with T1, APE-1. The experiment is described as follows: Gel-based excision assay for APE-1 inhibitors. The class given is biochemical. The conditions noted are these: APE-1 cleaved fragment vs. full length DNA substrate. As to the method:
as §1

The subject of experiment [3] is T98G cells. The experiment is described as follows: Potentiation of MeLex cytotoxicity, short term (72 h) MTS assay. In kind it is cell-based, human. As to the method:
Cytotoxic Potentiation of Various DNA Damaging Agents. T98G cells maintained in growth medium were resuspended in fresh growth medium and seeded into 96-well plates at 2000 cells/well (short term cytotoxicity) or 100 cells/well (long term cytotoxicity) as described in the previous section. After 24 h, the cells were treated with serial dilutions of various DNA damaging drugs in absence or presence of APE-1 inhibitors. At the end of the treatment period, cell survival was assayed using CellTiter 96 AQueous or CyQUANT kits for the short- and long-term studies respectively.
(§2) Toxicity. It was assumed that inhibition of APE-1 activity would be lead to toxicity since genetic deletion of the protein is lethal to cells. […] The toxicities were also determined in combination with the DNA minor groove methylating agent, MeLex. MeLex efficiently and selectively generates N3-methyladenine, which is converted into an abasic site by a BER glycosylase and/or hydrolytic depurination. The T98G cell line is relatively resistant to DNA damaging anticancer agents due to expression of multiple drug resistance proteins and O^6-alkylguanine-DNA alkyltransferase. […] A goal of the development of APE-1 inhibitors is to determine if they can be used to enhance the activity of DNA alkylating agents.

The test system of another experiment is leukemia cell lines. The experiment is described as follows: NCI 60 cell line growth inhibition. In kind it is cell-based.
For experiment [4], the system named is NCI panel of 60-cell lines. The experiment is described as follows: NCI 60 cell line growth inhibition. The class given is cell-based. The conditions noted are these: NCI 60 cell lines; read-out: average growth inhibition (GI50) in all the lines.
Experiment [5] concerns T98G cells. The experiment is described as follows: Long term (10-day) CyQUANT cytotoxicity assay. In kind it is cell-based, human. As to the method:
Cytotoxic Effects of APE-1 Inhibitors on Cultured Human Glioblastoma (T98G) Cells. Human glioblastoma cells (T98G) were maintained in growth medium as described above. […] The cells were allowed to attach and grow for 24 h, and then treated with serial dilutions of the drug for 72 h. After treatment, viable cells were measured by an MTS assay using the CellTiter 96 AQueous kit (Promega) as per manufacturer's instructions. […] The cells were allowed to attach and grow for 24 h and treated with serial dilutions of the drug for 240 h. After treatment, viable cells were measured using the CyQUANT cell proliferation assay kit (Invitrogen) as per manufacturer's instructions.
as §2

In another experiment the test system is SK-MEL-5 (melanoma) line. The experiment is described as follows: NCI 60 cell line growth inhibition. In kind it is cell-based. The conditions noted are these: Homo sapiens; 4 alone, SK-MEL-5 line.
Experiment [6] deals with aldehyde reactive sites in genomic DNA from T98G cells. The class given is cell-based, human.
Method: Quantification of Abasic Sites. T98G cells maintained in growth medium, were harvested by Trypsin-EDTA treatment, resuspended in fresh growth medium at a density of 2.5×10^5 cells mL^−1, and 2 mL (5×10^5 cells) of this suspension was seeded into the wells of a sterile 6-well tissue culture plate. Cells were allowed to grow for 24 h, treated with the various compounds for different time points and/or at different concentrations. At the end of each treatment, adherent cells were harvested by trypsin-EDTA treatment and pooled with live and dead cells in culture supernatant. Pooled cells in suspension were pelleted by centrifugation, washed with 1×PBS and genomic DNA was isolated using the DNAzol reagent (Invitrogen). DNA in solution was quantified by UV absorbance (λ260 nm) using a Synergy H1 multiwell plate reader (BioTek, Winooski, Vt.). Abasic sites in purified DNA were then reacted with the biotin-conjugated aldehyde reactive probe (ARP), immobilized onto 96-well ELISA plates, and detected using horseradish peroxidase (HRP)-conjugated streptavidin using a colorimetric substrate as per manufacturer's instructions (Dojindo Molecular Technologies, Rockville, Md.).
The biotin tagged ARS are quantified using an avidin-biotin assay, followed by colorimetric detection with horseradish peroxidase conjugated to avidin.

One may read the Ki as the dissociation constant of the complex between target and ligand, obtained from inhibition or displacement. The IC50 is the midpoint of a concentration-inhibition curve. Low readings indicate greater potency in that assay, high ones weaker potency in that assay. One may read the GI50 as the concentration at which growth is held to half of that of the control. Regarding `CCn1c2ccccc2c2cc(/C=N/Nc3cc(C)nc4cc5c(cc34)OCO5)ccc21` [Compound 4], the Ki on APE-1 [1] (molecular beacon assay, endonuclease activity, read-out: Ki APE-1 endonuclease inhibition) turned out to be 120 nM; at APE-1 [1] (molecular beacon screen, read-out: Ki, inhibition curve FIG. 2(c)) it was 345 nM. The same compound came in with an IC50 against APE-1 [2] of 4100 nM. In addition, the “LD50 of MeLex in the presence of LD10 concentration of inhibitor” value in the experiment on T98G cells [3] (72 h MTS assay) worked out at 49 µM. In addition, in the experiment on T98G cells [3] (short term assay), the “maximum potentiation of MeLex” value was “approximately 5 fold”. Further, the GI50 turned out to be 1800 ± 2900 nM in the experiment on leukemia cell lines (60 cell, 6 leukemia cell lines, read-out: GI50 overall average leukemia cell lines); 640 ± 400 nM in the experiment with leukemia cell lines (Homo sapiens, HL-60 omitted, read-out: GI50 leukemia cell lines, HL-60 line omitted); 4400 ± 2600 nM in experiment [4]; 4000 nM in the experiment on SK-MEL-5 (melanoma) line. In addition, the LD50 / toxicity in the experiment with T98G cells [5] (long term (clonogenic) assay, T98G) worked out at 190 nM. The LD10 concentration in the experiment on T98G cells [5] (long term assay) came out at 0.08 µM. For the same compound, the “level of ARS” value in experiment [6] (0.25 μM compound, maintained from 6 h until 18 h) is recorded as “approximately 17 ARS/10^5 nucleotides”. Further, the “level of ARS in combination with MeLex” value in experiment [6] (80 μM MeLex + 0.25 μM inhibitor, through at least 12 h) is 63 sites/10^5 nucleotides.
